Experimental data: the NIST ThermoML archive (doi:10.1016/j.jct.2016.09.005)
± gives the expanded uncertainty stated by the source.

Conditions: Brillouin Light Scattering

## CC(C)OC(C)C [diisopropyl ether]
432.85 K, 1000 kPa, Liquid
  speed of sound: 434.31 ± 6.1 m/s
433.18 K, 2500 kPa, Liquid
  speed of sound: 464.16 ± 6.5 m/s
433.27 K, 4000 kPa, Liquid
  speed of sound: 498.85 ± 7 m/s
437.97 K, 5500 kPa, Liquid
  speed of sound: 515.55 ± 7.4 m/s
438.45 K, 8500 kPa, Liquid
  speed of sound: 566.84 ± 8.1 m/s
438.48 K, 10000 kPa, Liquid
  speed of sound: 599.89 ± 8.5 m/s
438.69 K, 7000 kPa, Liquid
  speed of sound: 537.87 ± 7.6 m/s
438.94 K, 2500 kPa, Liquid
  speed of sound: 440.93 ± 6.2 m/s
439.03 K, 4000 kPa, Liquid
  speed of sound: 475.92 ± 6.7 m/s
442.55 K, 7000 kPa, Liquid
  speed of sound: 521.69 ± 7.4 m/s
442.6 K, 4000 kPa, Liquid
  speed of sound: 461.81 ± 6.5 m/s
442.85 K, 8500 kPa, Liquid
  speed of sound: 551.1 ± 7.9 m/s
442.96 K, 10000 kPa, Liquid
  speed of sound: 583.95 ± 8.3 m/s
443.09 K, 5500 kPa, Liquid
  speed of sound: 494.52 ± 7.1 m/s
443.46 K, Gas
  speed of sound: 140.99 ± 2.5 m/s
443.46 K, Liquid
  speed of sound: 384.46 ± 5.4 m/s
443.48 K, 2500 kPa, Liquid
  speed of sound: 424.11 ± 6 m/s
447.46 K, 2500 kPa, Liquid
  speed of sound: 407.02 ± 5.8 m/s
447.46 K, 10000 kPa, Liquid
  speed of sound: 569.2 ± 8.2 m/s
447.74 K, 5500 kPa, Liquid
  speed of sound: 476.22 ± 6.9 m/s
448.06 K, 8500 kPa, Liquid
  speed of sound: 530.98 ± 7.6 m/s
448.43 K, 4000 kPa, Liquid
  speed of sound: 436.29 ± 6.2 m/s
448.7 K, 7000 kPa, Liquid
  speed of sound: 505.01 ± 7.2 m/s
453.11 K, 2500 kPa, Liquid
  speed of sound: 380.57 ± 5.4 m/s
453.12 K, 5500 kPa, Liquid
  speed of sound: 456.86 ± 6.7 m/s
453.5 K, 4000 kPa, Liquid
  speed of sound: 418.12 ± 6 m/s
453.54 K, Gas
  speed of sound: 135.34 ± 2.4 m/s
453.54 K, Liquid
  speed of sound: 336.71 ± 4.8 m/s
453.57 K, 10000 kPa, Liquid
  speed of sound: 548.35 ± 7.8 m/s
453.75 K, 8500 kPa, Liquid
  speed of sound: 518.95 ± 7.4 m/s
454.24 K, 7000 kPa, Liquid
  speed of sound: 488.02 ± 7 m/s
457.15 K, 2500 kPa, Liquid
  speed of sound: 366.77 ± 5.2 m/s
457.54 K, Gas
  speed of sound: 131.58 ± 2.4 m/s
457.54 K, Liquid
  speed of sound: 315.85 ± 4.5 m/s
457.57 K, 10000 kPa, Liquid
  speed of sound: 539.84 ± 7.7 m/s
457.63 K, 8500 kPa, Liquid
  speed of sound: 503.76 ± 7.2 m/s
457.7 K, 7000 kPa, Liquid
  speed of sound: 475.35 ± 6.8 m/s
457.87 K, 4000 kPa, Liquid
  speed of sound: 397.64 ± 5.7 m/s
458.03 K, 5500 kPa, Liquid
  speed of sound: 440.35 ± 6.5 m/s
462.93 K, 4000 kPa, Liquid
  speed of sound: 377.89 ± 5.4 m/s
463 K, Gas
  speed of sound: 125.98 ± 2.3 m/s
463 K, Liquid
  speed of sound: 290.41 ± 4.1 m/s
463.16 K, 7000 kPa, Liquid
  speed of sound: 457.86 ± 6.7 m/s
463.6 K, 8500 kPa, Liquid
  speed of sound: 488.56 ± 7 m/s
463.85 K, 10000 kPa, Liquid
  speed of sound: 521.08 ± 7.5 m/s
463.88 K, 2500 kPa, Liquid
  speed of sound: 338.04 ± 4.9 m/s
464.11 K, 5500 kPa, Liquid
  speed of sound: 418.4 ± 6.2 m/s
467.52 K, 5500 kPa, Liquid
  speed of sound: 406.91 ± 6.1 m/s
467.53 K, 10000 kPa, Liquid
  speed of sound: 508.72 ± 7.3 m/s
467.58 K, 7000 kPa, Liquid
  speed of sound: 440.63 ± 6.4 m/s
467.74 K, 8500 kPa, Liquid
  speed of sound: 473.19 ± 6.8 m/s
468.21 K, 4000 kPa, Liquid
  speed of sound: 357.71 ± 5.2 m/s
468.31 K, Gas
  speed of sound: 121.95 ± 2.2 m/s
468.31 K, Liquid
  speed of sound: 263.51 ± 3.8 m/s
472.64 K, 8500 kPa, Liquid
  speed of sound: 459.74 ± 6.7 m/s
472.67 K, 7000 kPa, Liquid
  speed of sound: 424.62 ± 6.3 m/s
472.84 K, 5500 kPa, Liquid
  speed of sound: 384.97 ± 5.8 m/s
472.94 K, 4000 kPa, Liquid
  speed of sound: 339.72 ± 4.9 m/s
473.24 K, 10000 kPa, Liquid
  speed of sound: 491.15 ± 7.1 m/s
473.8 K, Gas
  speed of sound: 115.5 ± 2.1 m/s
473.8 K, Liquid
  speed of sound: 237.38 ± 3.4 m/s
478.69 K, Gas
  speed of sound: 108.41 ± 2 m/s
478.69 K, Liquid
  speed of sound: 210.25 ± 3.1 m/s
483.1 K, Gas
  speed of sound: 103.7 ± 2 m/s
483.1 K, Liquid
  speed of sound: 185.8 ± 2.8 m/s
487.42 K, Gas
  speed of sound: 98.66 ± 1.9 m/s
487.42 K, Liquid
  speed of sound: 162.27 ± 2.5 m/s
492.48 K, Gas
  speed of sound: 91.71 ± 1.8 m/s
492.48 K, Liquid
  speed of sound: 135.68 ± 2.1 m/s
505.6 K, 3500 kPa, Fluid (supercritical or subcritical phases)
  speed of sound: 132.11 ± 4 m/s
505.8 K, 4500 kPa, Fluid (supercritical or subcritical phases)
  speed of sound: 215.46 ± 4.1 m/s
506.21 K, 5500 kPa, Fluid (supercritical or subcritical phases)
  speed of sound: 263.63 ± 5.2 m/s
506.39 K, 6500 kPa, Fluid (supercritical or subcritical phases)
  speed of sound: 301.19 ± 5.3 m/s
509.39 K, 3500 kPa, Fluid (supercritical or subcritical phases)
  speed of sound: 114.34 ± 3.7 m/s
509.87 K, 4500 kPa, Fluid (supercritical or subcritical phases)
  speed of sound: 196.58 ± 3.9 m/s
510.29 K, 5500 kPa, Fluid (supercritical or subcritical phases)
  speed of sound: 244.35 ± 5 m/s
510.5 K, 6500 kPa, Fluid (supercritical or subcritical phases)
  speed of sound: 281.9 ± 5.2 m/s
516.22 K, 3500 kPa, Fluid (supercritical or subcritical phases)
  speed of sound: 102.13 ± 2.8 m/s
516.95 K, 6500 kPa, Fluid (supercritical or subcritical phases)
  speed of sound: 262.61 ± 5.4 m/s
517.48 K, 4500 kPa, Fluid (supercritical or subcritical phases)
  speed of sound: 161.27 ± 3.4 m/s
518.73 K, 5500 kPa, Fluid (supercritical or subcritical phases)
  speed of sound: 206.26 ± 5 m/s
519.67 K, 3500 kPa, Fluid (supercritical or subcritical phases)
  speed of sound: 108 ± 2.3 m/s
520.35 K, 4500 kPa, Fluid (supercritical or subcritical phases)
  speed of sound: 144.87 ± 3 m/s
521.7 K, 5500 kPa, Fluid (supercritical or subcritical phases)
  speed of sound: 199.75 ± 5.1 m/s
522.21 K, 6500 kPa, Fluid (supercritical or subcritical phases)
  speed of sound: 243.32 ± 5.1 m/s
526.46 K, 3500 kPa, Fluid (supercritical or subcritical phases)
  speed of sound: 116.09 ± 1.9 m/s
527.21 K, 4500 kPa, Fluid (supercritical or subcritical phases)
  speed of sound: 126.63 ± 2.4 m/s
528.59 K, 5500 kPa, Fluid (supercritical or subcritical phases)
  speed of sound: 173.63 ± 4.9 m/s
529.79 K, 6500 kPa, Fluid (supercritical or subcritical phases)
  speed of sound: 222.12 ± 5.2 m/s
532.59 K, 4500 kPa, Fluid (supercritical or subcritical phases)
  speed of sound: 114.85 ± 2 m/s
533.14 K, 5500 kPa, Fluid (supercritical or subcritical phases)
  speed of sound: 166.48 ± 4.7 m/s
533.59 K, 6500 kPa, Fluid (supercritical or subcritical phases)
  speed of sound: 210.67 ± 4.8 m/s
534.66 K, 4500 kPa, Fluid (supercritical or subcritical phases)
  speed of sound: 113.71 ± 1.9 m/s
535.53 K, 5500 kPa, Fluid (supercritical or subcritical phases)
  speed of sound: 159.52 ± 4.5 m/s
536.07 K, 6500 kPa, Fluid (supercritical or subcritical phases)
  speed of sound: 205.77 ± 4.8 m/s
536.58 K, 3500 kPa, Fluid (supercritical or subcritical phases)
  speed of sound: 132.72 ± 2.2 m/s
540.66 K, 4500 kPa, Fluid (supercritical or subcritical phases)
  speed of sound: 121.9 ± 2 m/s
541.18 K, 5500 kPa, Fluid (supercritical or subcritical phases)
  speed of sound: 155.19 ± 3.7 m/s
